Experimental data: US20230085307A1, “PYRIDAZINONE COMPOUND AND HERBICIDE” (NISSAN CHEMICAL CORPORATION, priority 2019, published 2023)

Columns and labels:
redroot pigweed [1] = test: Test Example 5: herbicidal effect by foliage application, plastic box (Table 20, symbol N); type: in vivo, redroot pigweed (Amaranthus retroflexus); conditions: foliage application, AAH 320 g/ha, evaluated three weeks after application
In short: (§1)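 Plants sown in sterilized diluvial soil and grown 14 days in a greenhouse at 25° C to 30° C, then sprayed on the foliage with the compound's emulsion diluted in water to a predetermined herbicide amount. Injury to weeds and crops scored three weeks after application on a visual rating scale.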

chickweed [2] = test: Test Example 4: herbicidal effect by soil treatment (Table 19, symbol P); type: in vivo, common chickweed (Stellaria media); conditions: amount of applied herbicide 320 g/ha
In short: (§2)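 Three weeks of greenhouse growth at 25° C. to 30° C. followed a uniform surface spray of water-diluted emulsion at a predetermined herbicide amount. Seeds had been sown beforehand under about 1.5 cm of sterilized diluvial soil. Grading followed criteria set out in an earlier test.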

velvetleaf [3] = test: Test Example 4: herbicidal effect by soil treatment (Table 19, symbol M); type: in vivo, velvetleaf (Abutilon theophrasti); conditions: amount of applied herbicide 320 g/ha
In short: as §2

late watergrass = test: Test Example 1: herbicidal activity, application before weed generation under submerged conditions (Table 16, symbol A); type: in vivo, late watergrass (Echinochloa oryzicola); conditions: 320 g/ha applied herbicide
In short: (§3)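 Emulsion formulation, water-diluted to set dose, was put onto the flooded surface (4 cm depth, alluvial soil) the same day weeds were sown and 2.5-leaf rice transplanted. After 3 weeks at 25-30 °C under glass, each species was rated 0 (≤5% kill) to 5 (≥90% kill).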

wild oat [4] = test: Test Example 5: herbicidal effect by foliage application, plastic box (Table 20, symbol I); type: in vivo, wild oat (Avena fatua); conditions: foliage application, AAH 320 g/ha, evaluated three weeks after application
In short: as §1

blackgrass [5] = test: Test Example 5: herbicidal effect by foliage application, plastic box (Table 20, symbol J); type: in vivo, blackgrass (Alopecurus myosuroides); conditions: foliage application, AAH 320 g/ha, evaluated three weeks after application
In short: as §1

Japanese bulrush = test: Test Example 1: herbicidal activity, application before weed generation under submerged conditions (Table 16, symbol B); type: in vivo, Japanese bulrush (Schoenoplectus juncoides); conditions: 320 g/ha applied herbicide
In short: as §3

windgrass [6] = test: Test Example 4: herbicidal effect by soil treatment (Table 19, symbol L); type: in vivo, windgrass (Apera spica-venti); conditions: amount of applied herbicide 320 g/ha
In short: as §2

Chinese sprangletop = test: Test Example 3: herbicidal effect by foliage application, Wagner pot (Table 18, symbol D); type: in vivo, chinese sprangletop (Leptochloa chinensis); conditions: amount of applied herbicide 320 g/ha
In short: (§4)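 Plants were sown in alluvial soil held under 0.1–0.5 cm standing water and grown 14 days in a greenhouse at 25–30 °C. An emulsifiable formulation, water-diluted to the set dose, was then sprayed onto the foliage, and effects were scored three weeks later using previously defined criteria.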

southern crabgrass [7] = test: Test Example 5: herbicidal effect by foliage application, plastic box (Table 20, symbol F); type: in vivo, southern crabgrass (Digitaria ciliaris); conditions: foliage application, AAH 320 g/ha, evaluated three weeks after application
In short: as §1

chickweed [8] = test: Test Example 5: herbicidal effect by foliage application, plastic box (Table 20, symbol P); type: in vivo, common chickweed (Stellaria media); conditions: foliage application, AAH 320 g/ha, evaluated three weeks after application
In short: as §1

windgrass [9] = test: Test Example 5: herbicidal effect by foliage application, plastic box (Table 20, symbol L); type: in vivo, windgrass (Apera spica-venti); conditions: foliage application, AAH 320 g/ha, evaluated three weeks after application
In short: as §1

oval-leafed pondweed = test: Test Example 1: herbicidal activity, application before weed generation under submerged conditions (Table 16, symbol C); type: in vivo, oval-leafed pondweed (Monochoria vaginalis); conditions: 320 g/ha applied herbicide
In short: as §3

green foxtail [10] = test: Test Example 4: herbicidal effect by soil treatment (Table 19, symbol G); type: in vivo, green foxtail (Setaria viridis); conditions: amount of applied herbicide 320 g/ha
In short: as §2

green foxtail [11] = test: Test Example 5: herbicidal effect by foliage application, plastic box (Table 20, symbol G); type: in vivo, green foxtail (Setaria viridis); conditions: foliage application, AAH 320 g/ha, evaluated three weeks after application
In short: as §1

persian speedwell [12] = test: Test Example 5: herbicidal effect by foliage application, plastic box (Table 20, symbol R); type: in vivo, Persian speedwell (Veronica persica); conditions: foliage application, AAH 320 g/ha, evaluated three weeks after application
In short: as §1

barnyard grass [13] = test: Test Example 5: herbicidal effect by foliage application, plastic box (Table 20, symbol H); type: in vivo, barnyard grass (Echinochloa crus-galli); conditions: foliage application, AAH 320 g/ha, evaluated three weeks after application
In short: as §1

barnyard grass [14] = test: Test Example 3: herbicidal effect by foliage application, Wagner pot (Table 18, symbol H); type: in vivo, barnyard grass (Echinochloa crus-galli); conditions: amount of applied herbicide 320 g/ha
In short: as §4

southern crabgrass [15] = test: Test Example 4: herbicidal effect by soil treatment (Table 19, symbol F); type: in vivo, southern crabgrass (Digitaria ciliaris); conditions: amount of applied herbicide 320 g/ha
In short: as §2

barnyard grass [16] = test: Test Example 4: herbicidal effect by soil treatment (Table 19, symbol H); type: in vivo, barnyard grass (Echinochloa crus-galli); conditions: amount of applied herbicide 320 g/ha
In short: as §2

wild oat [17] = test: Test Example 4: herbicidal effect by soil treatment (Table 19, symbol I); type: in vivo, wild oat (Avena fatua); conditions: amount of applied herbicide 320 g/ha
In short: as §2

lambsquarters [18] = test: Test Example 4: herbicidal effect by soil treatment (Table 19, symbol O); type: in vivo, lambsquarters (Chenopodium album); conditions: amount of applied herbicide 320 g/ha
In short: as §2

false cleavers = test: Test Example 5: herbicidal effect by foliage application, plastic box (Table 20, symbol Q); type: in vivo, false cleavers (Galium spurium); conditions: foliage application, AAH 320 g/ha, evaluated three weeks after application
In short: as §1

blackgrass [19] = test: Test Example 4: herbicidal effect by soil treatment (Table 19, symbol J); type: in vivo, blackgrass (Alopecurus myosuroides); conditions: amount of applied herbicide 320 g/ha
In short: as §2

rice flat sedge = test: Test Example 3: herbicidal effect by foliage application, Wagner pot (Table 18, symbol E); type: in vivo, rice flat sedge (Cyperus iria); conditions: amount of applied herbicide 320 g/ha
In short: as §4

Italian ryegrass [20] = test: Test Example 4: herbicidal effect by soil treatment (Table 19, symbol K); type: in vivo, Italian ryegrass (Lolium multiflorum); conditions: amount of applied herbicide 320 g/ha
In short: as §2

lambsquarters [21] = test: Test Example 5: herbicidal effect by foliage application, plastic box (Table 20, symbol O); type: in vivo, lambsquarters (Chenopodium album); conditions: foliage application, AAH 320 g/ha, evaluated three weeks after application
In short: as §1

redroot pigweed [22] = test: Test Example 4: herbicidal effect by soil treatment (Table 19, symbol N); type: in vivo, redroot pigweed (Amaranthus retroflexus); conditions: amount of applied herbicide 320 g/ha
In short: as §2

persian speedwell [23] = test: Test Example 4: herbicidal effect by soil treatment (Table 19, symbol R); type: in vivo, Persian speedwell (Veronica persica); conditions: amount of applied herbicide 320 g/ha
In short: as §2

Italian ryegrass [24] = test: Test Example 5: herbicidal effect by foliage application, plastic box (Table 20, symbol K); type: in vivo, Italian ryegrass (Lolium multiflorum); conditions: foliage application, AAH 320 g/ha, evaluated three weeks after application
In short: as §1

velvetleaf [25] = test: Test Example 5: herbicidal effect by foliage application, plastic box (Table 20, symbol M); type: in vivo, velvetleaf (Abutilon theophrasti); conditions: foliage application, AAH 320 g/ha, evaluated three weeks after application
In short: as §1

Compound: Cc1nn(C)c(=O)c(-c2c(-c3ccc(OC(F)F)cc3)sc3ccc(F)cc23)c1OS(=O)(=O)c1ccc(Cl)cc1 [2-311]
- N: redroot pigweed, herbicidal effect (criteria 0-5) (redroot pigweed [1]): 5 (Herbicidal rate of 90% or more (almost completely withered))
- herbicidal effect on P: chickweed (chickweed [2]): 3 (Herbicidal rate of 40% or more and less than 70%)
- herbicidal effect on M: velvetleaf (velvetleaf [3]): 2 (Herbicidal rate of 20% or more and less than 40%)
- Herbicidal effect on A: late watergrass (grade 0-5) (late watergrass): 3 (Herbicidal rate of 40% or more and less than 70%)
- I: wild oat, herbicidal effect (criteria 0-5) (wild oat [4]): 3 (Herbicidal rate of 40% or more and less than 70%)
- J: blackgrass, herbicidal effect (criteria 0-5) (blackgrass [5]): 3 (Herbicidal rate of 40% or more and less than 70%)
- Herbicidal effect on B: Japanese bulrush (grade 0-5) (Japanese bulrush): 3 (Herbicidal rate of 40% or more and less than 70%)
- herbicidal effect on L: windgrass (windgrass [6]): 0 (Herbicidal rate of 5% or less (almost no effect))
- herbicidal effect on D: Chinese sprangletop (Chinese sprangletop): 2 (Herbicidal rate of 20% or more and less than 40%)
- F: southern crabgrass, herbicidal effect (criteria 0-5) (southern crabgrass [7]): 2 (Herbicidal rate of 20% or more and less than 40%)
- P: chickweed, herbicidal effect (criteria 0-5) (chickweed [8]): 5 (Herbicidal rate of 90% or more (almost completely withered))
- L: windgrass, herbicidal effect (criteria 0-5) (windgrass [9]): 4 (Herbicidal rate of 70% or more and less than 90%)
- Herbicidal effect on C: oval-leafed pondweed (grade 0-5) (oval-leafed pondweed): 3 (Herbicidal rate of 40% or more and less than 70%)
- herbicidal effect on G: green foxtail (green foxtail [10]): 0 (Herbicidal rate of 5% or less (almost no effect))
- G: green foxtail, herbicidal effect (criteria 0-5) (green foxtail [11]): 5 (Herbicidal rate of 90% or more (almost completely withered))
- R: persian speedwell, herbicidal effect (criteria 0-5) (persian speedwell [12]): 5 (Herbicidal rate of 90% or more (almost completely withered))
- H: barnyard grass, herbicidal effect (criteria 0-5) (barnyard grass [13]): 5 (Herbicidal rate of 90% or more (almost completely withered))
- herbicidal effect on H: barnyard grass (barnyard grass [14]): 5 (Herbicidal rate of 90% or more (almost completely withered))
- herbicidal effect on F: southern crabgrass (southern crabgrass [15]): 0 (Herbicidal rate of 5% or less (almost no effect))
- herbicidal effect on H: barnyard grass (barnyard grass [16]): 0 (Herbicidal rate of 5% or less (almost no effect))
- herbicidal effect on I: wild oat (wild oat [17]): 0 (Herbicidal rate of 5% or less (almost no effect))
- herbicidal effect on O: lambsquarters (lambsquarters [18]): 5 (Herbicidal rate of 90% or more (almost completely withered))
- Q: false cleavers, herbicidal effect (criteria 0-5) (false cleavers): 5 (Herbicidal rate of 90% or more (almost completely withered))
- herbicidal effect on J: blackgrass (blackgrass [19]): 0 (Herbicidal rate of 5% or less (almost no effect))
- herbicidal effect on E: rice flat sedge (rice flat sedge): 4 (Herbicidal rate of 70% or more and less than 90%)
- herbicidal effect on K: Italian ryegrass (Italian ryegrass [20]): 4 (Herbicidal rate of 70% or more and less than 90%)
- O: lambsquarters, herbicidal effect (criteria 0-5) (lambsquarters [21]): 5 (Herbicidal rate of 90% or more (almost completely withered))
- herbicidal effect on N: redroot pigweed (redroot pigweed [22]): 4 (Herbicidal rate of 70% or more and less than 90%)
- herbicidal effect on R: persian speedwell (persian speedwell [23]): 4 (Herbicidal rate of 70% or more and less than 90%)
- K: Italian ryegrass, herbicidal effect (criteria 0-5) (Italian ryegrass [24]): 5 (Herbicidal rate of 90% or more (almost completely withered))
- M: velvetleaf, herbicidal effect (criteria 0-5) (velvetleaf [25]): 5 (Herbicidal rate of 90% or more (almost completely withered))
